Experimental data taken from ChEMBL document CHEMBL3856183, “Structure-activity relationships of 3-O-β-chacotriosyl oleanane-type triterpenoids as potential H5N1 entry inhibitors” (Eur J Med Chem, 2016).

Tests used:
[1] = Selectivity index, ratio of CC50 for MDCK cells to IC50 for Influenza A virus H5 subtype (A/Thailand/Kan353/2004(H5N1)) pseudovirus infected in MDCK cells co-infected with HA/HIV; type: functional
[2] = Cytotoxicity against MDCK cells assessed as cell death after 2 days by MTT assay; type: toxicity, cell-based, Canis lupus familiaris; settings: dog
cells = settings: Influenza A virus, MDCK
[3] = tested on: Influenza A virus (A/Vietnam/1194/2004(H5N1)); experiment: (§1) Binding affinity to influenza A virus A/Vietnam/1194/2004(H5N1) Hemagglutinin 2 subunit by surface plasmon resonance analysis
[4] = as §1
[5] = tested on: Influenza A virus (A/Vietnam/1194/2004(H5N1)); experiment: (§2) Binding affinity to Influenza A virus A/Vietnam/1194/2004(H5N1) Hemagglutinin by surface plasmon resonance analysis
[6] = as §2

| Compound | Ratio CC50/IC50 [1] | CC50 at 48 h [2] [µM] | IC50 (cells) [µM] | Activity [3] | Kd [4] [µM] | Activity [5] | Kd [6] [µM] |
| --- | --- | --- | --- | --- | --- | --- | --- |
| CCOC(=O)[C@]12CCC(C)(C)C[C@H]1C1=CC[C@@H]3[C@@]4(C)CC[C@H](O[C@@H]5O[C@H](CO)[C@@H](O[C@@H]6O[C@@H](C)[C@H](O)[C@@H](O)[C@H]6O)[C@H](O)[C@H]5O[C@@H]5O[C@@H](C)[C@H](O)[C@@H](O)[C@H]5O)C(C)(C)[C@@H]4CC[C@@]3(C)[C@]1(C)CC2 | 7.2 | 37.4 | 5.2 |  |  |  |  |
| COC(=O)[C@]12CCC(C)(C)C[C@H]1C1=CC[C@@H]3[C@@]4(C)CC[C@@H](O[C@@H]5O[C@H](CO)[C@@H](O[C@@H]6O[C@@H](C)[C@H](O)[C@@H](O)[C@H]6O)[C@H](O)[C@H]5O[C@@H]5O[C@@H](C)[C@H](O)[C@@H](O)[C@H]5O)C(C)(C)[C@@H]4CC[C@@]3(C)[C@]1(C)CC2 | >38 | > 200 | 5.26 |  |  |  |  |
| CC1(C)CC[C@]2(C(=O)O)CC[C@]3(C)C(=CC[C@@H]4[C@@]5(C)CC[C@H](O)C(C)(C)[C@@H]5CC[C@]43C)[C@@H]2C1 [OLEANOLIC_ACID] | <1 | 23.1 | > 50 |  |  |  |  |
| COC(=O)[C@@]1(C)CC[C@]2(C)CC[C@]3(C)C(=CC(=O)[C@@H]4[C@@]5(C)CC[C@H](O[C@@H]6O[C@H](CO)[C@@H](O[C@@H]7O[C@@H](C)[C@H](O)[C@@H](O)[C@H]7O)[C@H](O)[C@H]6O[C@@H]6O[C@@H](C)[C@H](O)[C@@H](O)[C@H]6O)C(C)(C)[C@@H]5CC[C@]43C)[C@@H]2C1 | 8.3 | 33.8 | 4.1 |  |  |  |  |
| C[C@@H]1O[C@@H](O[C@H]2[C@H](O[C@H]3CC[C@]4(C)[C@H]5CC=C6[C@@H]7CC(C)(C)CC[C@]7(C(=O)O)CC[C@@]6(C)[C@]5(C)CC[C@H]4C3(C)C)O[C@H](CO)[C@@H](O[C@@H]3O[C@@H](C)[C@H](O)[C@@H](O)[C@H]3O)[C@@H]2O)[C@H](O)[C@H](O)[C@H]1O | 2 | 18.7 | 9.39 |  |  |  |  |
| COC[C@]12CCC(C)(C)C[C@H]1C1=CC[C@@H]3[C@@]4(C)CC[C@H](O[C@@H]5O[C@H](CO)[C@@H](O[C@@H]6O[C@@H](C)[C@H](O)[C@@H](O)[C@H]6O)[C@H](O)[C@H]5O[C@@H]5O[C@@H](C)[C@H](O)[C@@H](O)[C@H]5O)C(C)(C)[C@@H]4CC[C@@]3(C)[C@]1(C)CC2 | <1 | 16.8 | > 20 |  |  |  |  |
| C[C@@H]1O[C@@H](O[C@H]2[C@H](O[C@H]3CC[C@]4(C)[C@H]5CC=C6[C@@H]7CC(C)(C)CC[C@]7(C=O)CC[C@@]6(C)[C@]5(C)CC[C@H]4C3(C)C)O[C@H](CO)[C@@H](O[C@@H]3O[C@@H](C)[C@H](O)[C@@H](O)[C@H]3O)[C@@H]2O)[C@H](O)[C@H](O)[C@H]1O | 2.5 | 21.1 | 8.58 |  |  |  |  |
| O=C(NCCN1CCCCC1)c1cc(F)cc(C(F)(F)F)c1 | 332.3 |  |  |  |  |  |  |
| C[C@@H]1O[C@@H](O[C@H]2[C@H](O[C@H]3CC[C@]4(C)[C@H]5CC=C6[C@@H]7CC(C)(C)CC[C@]7(C(=O)OC7CCCC7)CC[C@@]6(C)[C@]5(C)CC[C@H]4C3(C)C)O[C@H](CO)[C@@H](O[C@@H]3O[C@@H](C)[C@H](O)[C@@H](O)[C@H]3O)[C@@H]2O)[C@H](O)[C@H](O)[C@H]1O | 12.1 | 58.2 | 4.8 |  |  |  |  |
| CCCCCOC(=O)[C@]12CCC(C)(C)C[C@H]1C1=CC[C@@H]3[C@@]4(C)CC[C@H](O[C@@H]5O[C@H](CO)[C@@H](O[C@@H]6O[C@@H](C)[C@H](O)[C@@H](O)[C@H]6O)[C@H](O)[C@H]5O[C@@H]5O[C@@H](C)[C@H](O)[C@@H](O)[C@H]5O)C(C)(C)[C@@H]4CC[C@@]3(C)[C@]1(C)CC2 | 6.9 | 45.2 | 6.52 |  |  |  |  |
| C[C@@H]1O[C@@H](O[C@H]2[C@H](O[C@H]3CC[C@]4(C)[C@H]5CC=C6[C@@H]7CC(C)(C)CC[C@]7(C(=O)OCc7ccccc7)CC[C@@]6(C)[C@]5(C)CC[C@H]4C3(C)C)O[C@H](CO)[C@@H](O[C@@H]3O[C@@H](C)[C@H](O)[C@@H](O)[C@H]3O)[C@@H]2O)[C@H](O)[C@H](O)[C@H]1O | 13.4 | 75.4 | 5.62 |  |  |  |  |
| CCN(CC)C(=O)[C@]12CCC(C)(C)C[C@H]1C1=CC[C@@H]3[C@@]4(C)CC[C@H](O[C@@H]5O[C@H](CO)[C@@H](O[C@@H]6O[C@@H](C)[C@H](O)[C@@H](O)[C@H]6O)[C@H](O)[C@H]5O[C@@H]5O[C@@H](C)[C@H](O)[C@@H](O)[C@H]5O)C(C)(C)[C@@H]4CC[C@@]3(C)[C@]1(C)CC2 | 27.8 | 69 | 2.48 |  |  |  |  |
| COC(=O)[C@]12CCC(C)(C)C[C@H]1C1=CC(=O)[C@@H]3[C@@]4(C)CC[C@H](O[C@@H]5O[C@H](CO)[C@@H](O[C@@H]6O[C@@H](C)[C@H](O)[C@@H](O)[C@H]6O)[C@H](O)[C@H]5O[C@@H]5O[C@@H](C)[C@H](O)[C@@H](O)[C@H]5O)C(C)(C)[C@@H]4CC[C@@]3(C)[C@]1(C)CC2 | 3.1 | 17.9 | 5.8 |  |  |  |  |
| COC(=O)[C@]12CCC(C)(C)C[C@H]1C1=CC[C@@H]3[C@@]4(C)CC[C@H](O[C@@H]5O[C@H](CO)[C@@H](O[C@@H]6O[C@@H](C)[C@H](O)[C@@H](O)[C@H]6O)[C@H](O)[C@H]5O[C@@H]5O[C@@H](C)[C@H](O)[C@@H](O)[C@H]5O)C(C)(C)[C@@H]4CC[C@@]3(C)[C@]1(C)CC2 | 3.6 |  | 4.74 |  |  |  |  |
| C[C@@H]1CC[C@@]2(OC1)O[C@H]1C[C@H]3[C@@H]4C[C@H](O)[C@H]5C[C@@H](O[C@@H]6O[C@H](CO)[C@@H](O[C@@H]7O[C@@H](C)[C@H](O)[C@@H](O)[C@H]7O)[C@H](O)[C@H]6O[C@@H]6O[C@@H](C)[C@H](O)[C@@H](O)[C@H]6O)CC[C@]5(C)[C@H]4CC[C@]3(C)[C@H]1[C@@H]2C | 2.3 | 18.3 | 7.92 |  |  |  |  |
| C[C@@H]1O[C@@H](O[C@H]2[C@H](O[C@H]3CC[C@]4(C)[C@H]5CC=C6[C@@H]7CC(C)(C)CC[C@]7(C(=O)N(C)C)CC[C@@]6(C)[C@]5(C)CC[C@H]4C3(C)C)O[C@H](CO)[C@@H](O[C@@H]3O[C@@H](C)[C@H](O)[C@@H](O)[C@H]3O)[C@@H]2O)[C@H](O)[C@H](O)[C@H]1O | 29.7 | 70 | 2.36 | Dose-dependent effect | 0.0112 | Dose-dependent effect | 0.00446 |
